According to the supplement of paper PMC12420376:
± gives the uncertainty stated by the source.

Test system: KURAMOCHI
Assay: cancer cell viability relative to untreated control; higher = less cytotoxic
Settings: 72 h
Procedure: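 KURAMOCHI or OVCAR8 cells were grown in monoculture or in co-culture with WI38 or patient-derived 030F fibroblasts and treated for 72 h with a dose matrix of carboplatin combined with birinapant or vorinostat (doses in nM). Cancer cell viability was measured by CK8/18 immunofluorescence imaging and expressed as % of untreated control, given as mean with SD.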

O=C(O)C1(C(=O)O)CCC1.[NH2-].[NH2-].[Pt+2] [Carboplatin] + CC[C@H](NC(=O)[C@H](C)NC)C(=O)N1C[C@@H](O)C[C@H]1Cc1c(-c2[nH]c3cc(F)ccc3c2C[C@@H]2C[C@H](O)CN2C(=O)[C@H](CC)NC(=O)[C@H](C)NC)[nH]c2cc(F)ccc12 [Birinapant]
cancer cell viability [%]
Settings	partner drug concentration 0 nM	partner drug concentration 0.1 nM	partner drug concentration 1 nM	partner drug concentration 10 nM	partner drug concentration 100 nM	partner drug concentration 1000 nM
carboplatin concentration 10 nM, co-cultured fibroblast: 030F	95.1 ± 4.9	97.5 ± 8.3	93.4 ± 9.6	82.9 ± 11	81.5 ± 6.7	84.3 ± 10
carboplatin concentration 10 nM, co-cultured fibroblast: WI38	93.7 ± 9.7	94.4 ± 8.1	87.7 ± 13	85 ± 5.5	80.4 ± 7.3	77.7 ± 11
carboplatin concentration 10 nM, co-cultured fibroblast: none (monoculture)	101 ± 18	93.7 ± 18	90.3 ± 14	79.5 ± 11	73.8 ± 10	67.6 ± 13
carboplatin concentration 100 nM, co-cultured fibroblast: 030F	95.5 ± 11	92 ± 4.9	94.7 ± 5.6	95.6 ± 13	84.5 ± 6.8	85.6 ± 5.8
carboplatin concentration 100 nM, co-cultured fibroblast: WI38	91.6 ± 15	88.5 ± 9.4	90.5 ± 4.1	98.4 ± 11	86.1 ± 10	82.2 ± 6.1
carboplatin concentration 100 nM, co-cultured fibroblast: none (monoculture)	95.7 ± 20	89.2 ± 12	91.7 ± 11	97.3 ± 18	66.7 ± 13	67.3 ± 8.5
carboplatin concentration 1000 nM, co-cultured fibroblast: 030F	91.6 ± 11	92.2 ± 12	100 ± 4.1	91.7 ± 15	82.9 ± 10	87.1 ± 12
carboplatin concentration 1000 nM, co-cultured fibroblast: WI38	94.4 ± 11	99.2 ± 6.3	98.2 ± 13	97.8 ± 15	88.5 ± 10	77.5 ± 11
carboplatin concentration 1000 nM, co-cultured fibroblast: none (monoculture)	102 ± 21	95 ± 13	90.7 ± 10	90.3 ± 9.4	74.3 ± 12	61 ± 12
carboplatin concentration 1e+05 nM, co-cultured fibroblast: 030F	44.4 ± 13	50.4 ± 8.6	60.3 ± 15	52.9 ± 11	40.4 ± 9.8	54.9 ± 8.4
carboplatin concentration 1e+05 nM, co-cultured fibroblast: WI38	31.1 ± 12	41.9 ± 9	48 ± 18	43.7 ± 10	36.4 ± 10	44.2 ± 10
carboplatin concentration 1e+05 nM, co-cultured fibroblast: none (monoculture)	26.6 ± 5.7	33.6 ± 4.6	38.4 ± 6.9	37.9 ± 12	18.6 ± 8.4	24.4 ± 9.1
carboplatin concentration 10000 nM, co-cultured fibroblast: 030F	51.7 ± 15	80.8 ± 4.5	88.2 ± 9.3	88.8 ± 8.8	72.4 ± 14	71.7 ± 7.3
carboplatin concentration 10000 nM, co-cultured fibroblast: WI38	40.7 ± 4.7	80 ± 16	83.2 ± 7.4	91.4 ± 14	74.1 ± 10	69.9 ± 5
carboplatin concentration 10000 nM, co-cultured fibroblast: none (monoculture)	23.9 ± 5.7	95.4 ± 14	72.3 ± 9.8	84.6 ± 27	57.4 ± 8.2	51.8 ± 7

O=C(O)C1(C(=O)O)CCC1.[NH2-].[NH2-].[Pt+2] [Carboplatin] + O=C(CCCCCCC(=O)Nc1ccccc1)NO [Vorinostat]
cancer cell viability [%]
Settings	partner drug concentration 0 nM	partner drug concentration 1 nM	partner drug concentration 10 nM	partner drug concentration 100 nM	partner drug concentration 1000 nM	partner drug concentration 10000 nM
carboplatin concentration 10 nM, co-cultured fibroblast: 030F	95.1 ± 4.9	107 ± 15	95.5 ± 14	77.5 ± 16	36.9 ± 25	4.67 ± 3.6
carboplatin concentration 10 nM, co-cultured fibroblast: WI38	93.7 ± 9.7	107 ± 28	97.6 ± 18	70 ± 31	26.5 ± 20	5.05 ± 4.4
carboplatin concentration 10 nM, co-cultured fibroblast: none (monoculture)	101 ± 18	111 ± 22	101 ± 23	67.6 ± 34	31.1 ± 22	-0.479 ± 5.7
carboplatin concentration 100 nM, co-cultured fibroblast: 030F	95.5 ± 11	106 ± 20	102 ± 7.8	75.9 ± 19	28.8 ± 12	3.53 ± 2.5
carboplatin concentration 100 nM, co-cultured fibroblast: WI38	91.6 ± 15	101 ± 17	91.2 ± 13	63.2 ± 28	21 ± 13	5.14 ± 3.4
carboplatin concentration 100 nM, co-cultured fibroblast: none (monoculture)	95.7 ± 20	101 ± 17	92.7 ± 9.7	63.3 ± 26	24.3 ± 22	0.0805 ± 4.8
carboplatin concentration 1000 nM, co-cultured fibroblast: 030F	91.6 ± 11	85.7 ± 18	89.1 ± 17	58.1 ± 13	31.1 ± 9.2	6.6 ± 4.2
carboplatin concentration 1000 nM, co-cultured fibroblast: WI38	94.4 ± 11	88.8 ± 20	88.6 ± 15	52 ± 16	18.7 ± 9.2	5.75 ± 5
carboplatin concentration 1000 nM, co-cultured fibroblast: none (monoculture)	102 ± 21	103 ± 19	91.6 ± 15	54.2 ± 12	20.8 ± 15	1.21 ± 6.6
carboplatin concentration 1e+05 nM, co-cultured fibroblast: 030F	44.4 ± 13	47.7 ± 24	47.7 ± 13	38 ± 9.5	39 ± 15	1.97 ± 3.9
carboplatin concentration 1e+05 nM, co-cultured fibroblast: WI38	31.1 ± 12	39.3 ± 19	39.4 ± 20	30.1 ± 6.7	20.6 ± 3.4	0.366 ± 0.77
carboplatin concentration 1e+05 nM, co-cultured fibroblast: none (monoculture)	26.6 ± 5.7	37.6 ± 18	37 ± 14	22.8 ± 6.3	21.3 ± 5.6	-3.77 ± 2.5
carboplatin concentration 10000 nM, co-cultured fibroblast: 030F	51.7 ± 15	72.2 ± 30	71.1 ± 29	55.5 ± 14	45 ± 14	3.59 ± 2.8
carboplatin concentration 10000 nM, co-cultured fibroblast: WI38	40.7 ± 4.7	72 ± 28	68 ± 23	46.1 ± 11	28.8 ± 14	4.43 ± 3.5
carboplatin concentration 10000 nM, co-cultured fibroblast: none (monoculture)	23.9 ± 5.7	80.8 ± 36	62.8 ± 25	49.1 ± 14	27.5 ± 14	-0.104 ± 4.2
